Read-outs that look alike come from different tables or passages of the source.
How the values were obtained:
[1] = Method: Data collected were the same as in the Charles River xenograft study—clinical signs, body weight, tumor volume, blood samples from 3 mice/group for hematology and clinical chemistry (ALT, AST, BUN, creatinine, CK), and tissue samples collected and fixed from the same 3 mice. Liver, kidneys, and small intestine also were weighed.
(§1) The dose volume was 10 mL/kg.

[2] = tested on: patient DLBCL3 derived lymphoma xenograft; assay: DLBCL3 patient-derived xenograft, tumor growth; assay type: in vivo, mouse; settings: 20 mg/kg subcutaneous daily, 21 days
Method: as §1
TGI (%)=(Vcontrol−Vtreated)/(Vcontrol−Vnitial)*100.
The pleural fluid was collected in cold sterile 20% RPMI 1640 medium and neoplastic cells were isolated with Ficoll-Paque Plus (GE Healthcare) and re-suspended in […] (Life Technologies) with 20% foetal bovine serum (Life Technologies, Carlsbad, CA). […] The cell suspension was injected subcutaneously in the flank of 4-6-week-old NODscid mice. When the tumors reached a maximum of 1000 mm^3, the mice were sacrificed, tumors were harvested, and a necropsy was performed. Xenograft tumors were immediately frozen, fixed in formalin, and stored in 90% foetal bovine serum, and 10% dimethyl sulfoxide or placed in RPMI 1640 medium. This process was repeated to produce subsequent generations of patient-derived xenograft models (P2, P3, P4, . . . ). To evaluate the maintenance of the morphology and main characteristics of the tumor of origin, formalin-fixed, paraffin-embedded tissue sections from patient tumor samples and xenografts of all established patient-derived xenograft models were stained with haematoxylin and eosin. These sections were also immunostained to measure the expression of various markers. A clinical pathologist reviewed all the slides. […]

[3] = T cell viability by flow cytometry; assay type: cell-based; settings: human, purified T cells from healthy donors; for viability at 4 days, 20 nM: Drug 20 nM; for viability at 4 days, 100 nM: Drug 100 nM; for viability at 4 days, 500 nM: Drug 500 nM
Method: Human peripheral blood mononuclear cells (PBMC) and purified T cells from healthy donors were purchased from […] Technologies (CA). Cells (7.5×10^6/ml) were cultured in the RPMI supplementing with 10% heat-inactivated fetal bovine serum (vWR), 1% penicillin/streptomycin (SigmaMillipore), 1% sodium pyruvate, and 1% non-essential amino acids (Gibco) in 24 well plates in the presence of 100 IU/ml interleukin 2 ([…] Technologies or HIV reagent program (managed by ATCC).
Then, cells were induced with T cell activator ([…]) in the presence of the drugs for 2 more days. After 4 days, the viability of treated T cells was analyzed using Flow cytometry. The supernatants for both PBMC and T cells were collected for further analysis.

[4] = Mouse IV; cited from earlier work
[5] = rats; cited from earlier work
BL2 cells = assay: Click chemistry, total protein myristoylation; assay type: cell-based; settings: 1 hr treatment
Method: Protein from the resulting cell lysates were reacted with 100 μM azido-biotin using click chemistry and processed as described in Yap et al.^47 and Perinpanayagam et al.^33

[6] = tested on: peripheral blood mononuclear cells (PBMCs); assay: PBMC viability assay; assay type: cell-based, human; settings: 96 hr
Method: 2 healthy human research volunteers were recruited for PBMC and lymphocytes isolation from a 20 ml blood collection (patient #1: no diagnosis, no treatment; patient #2: no diagnosis, no treatment). Study protocol was approved by the Health Research Ethics Board of Alberta Cancer Committee (Study title: Evaluations of Fatty AcylTransferases (FATs) in fresh blood and blood forming cells; HREBA.CC-17-0624).
Mononuclear cells were isolated from peripheral blood by density gradient centrifugation using Ficoll-Paque (GE Healthcare, PA, USA). Lymphocytes were isolated from whole blood samples using EasySep™ lymphocyte isolation kit (Stemcell Technologies, Vancouver, BC, Canada) as per manufacturer's instructions. PBMC and lymphocytes were cultured in RPMI medium with 10% FBS, 100 U/ml penicillin, 0.1 mg/ml streptomycin. Cells were plated at a concentration of 2×10^6 cells/ml.

[7] = tested on: hematological cancer cell lines; assay: ChemPartner cell line screen, CellTiter Blue; assay type: cell-based; settings: 72 h; 3 days of treatment; read-out: median IC50
Method: (§2) 131 cell lines were seeded in 96-well plate, black wall, tissue culture treated (from Corning, Cat.3904) and cultured following ATCC formulation. Cell viability after 72 hrs and 144 hrs was measured using Cell Titer Blue Viability Assay (from Promega, Cat. G8081, Lot. No. 0000190181) and fluorescence at 560/590 nm was recorded with Enspire (PerkinElmer). EC50 was calculated using XLfit software (5.5).

[8] = tested on: cell lines originating from solid tumors; assay: ChemPartner cell line screen, CellTiter Blue; assay type: cell-based; settings: 72 h; 3 days of treatment; 10 μM is the highest dose tested; read-out: median IC50
Method: as §2

[9] = dogs; cited from earlier work
EGFP-N-Ras = assay: Palmitoylation of EGFP-N-Ras in COS-7 cells; assay type: cell-based; settings: 10 μM
Method: The cells pre-treated with inhibitors were then labelled for 4 hrs with 100 μM Alkyne-C16. EGFP-tagged constructs were immunoprecipitated as described and reacted with azido-biotin using click chemistry. Biotinylated-palmitoylated proteins were detected using neutravidin-HRP conjugate and ECL. […] All western blots shown are representative of three independent experiments.

## Cc1c(N[S+](=O)([O-])c2c(Cl)cc(-c3ccnc(N4CCNCC4)c3)cc2Cl)c(CC(C)C)nn1C [PCLX-001]
[1]; 20, 50, 60 mg/kg/day
  clinical pathology and anatomic pathology: no clinical pathology or anatomic pathology findings
[1]; 50 or 60 mg/kg/day
  dehydration and body weight: Dehydration and weight loss
[1]; most mice in groups given PCLX-001 (20, 50, 60 mg/kg/day)
  clinical signs: Signs of ill health
[2]
  TGI: 66%
[3]; T cells viability (#1)
  viability at 4 days, 20 nM: 9%
  viability at 4 days, 100 nM: 8%
  viability at 4 days, 500 nM: 10%
[3]; T cells viability (#2)
  viability at 4 days, 20 nM: 66%
  viability at 4 days, 100 nM: 60%
  viability at 4 days, 500 nM: 62%
[3]; T cells viability (#3)
  viability at 4 days, 20 nM: 76%
  viability at 4 days, 100 nM: 71%
  viability at 4 days, 500 nM: 68%
[4]
  Clearance: 3 mL/min/kg
[5]
  toxicity at high dose levels: hematopoietic toxicity
BL2 cells
  concentration required to decrease myristoylation: ~0.1 µM
[6]; 0.1 μM
  decrease in PBMC survival: ~50%
[6]
  concentration endured by the surviving PBMCs: ≤ 10 µM
[7]
  IC50: 166 nM
[8]
  IC50: ≥ 10000 nM
[9]
  toxicity at high dose levels: hematopoietic toxicity
EGFP-N-Ras
  palmitoylation of EGFP-N-Ras: does not inhibit

From patent US20240350481A1, “USE OF N-MYRISTOYL TRANSFERASE (NMT) INHIBITORS IN THE TREATMENT OF CANCER, AUTOIMMUNE DISORDERS, AND INFLAMMATORY DISORDERS” (PACYLEX PHARMACEUTICALS INC., priority 2020, published 2024)
